Marks after values point to notes of the source that are not given here.
Key:
Assay type in all cases: in vivo, rat
Male Sprague-Dawley rats [1] = test: Palatable food intake following drug injections in binge-eating rats (Example 2); details: for Effect on palatable food (fat) intake, in words / Effect on palatable food (sugar) intake, in words / Effect on palatable food (sugar-fat) intake, in words: one-way ANOVA over saline, low and high dose
Description: (§1) Male Sprague-Dawley rats, 250-300 g at the onset of the experiment, were obtained from Taconic Farms (Germantown, N.Y., USA). Rats were housed individually on a 12-h reversed light/dark cycle and given 1 wk to acclimate before diet training began.
(§2) The rats were divided into groups (n=10/group) matched for body weight and assigned to one of the following dietary conditions: (1) Binge Sugar, (2) Binge Fat or (3) Binge Sugar-Fat. All rats received palatable diets and standard rodent chow (LabDiet #5001, PMI Nutrition International, Richmond, Ind., USA; 10% fat, 20% protein, 70% carbohydrate, 3.02 kcal/g) for 12 h/day, starting 4 h after the onset of the dark cycle. Water was available ad libitum.
(§3) All palatable foods were mixed in the laboratory. The Binge Sugar group had access to a 10% (w/v) sucrose solution (Domino® Granulated Pure Cane Sugar, dissolved in tap water, 0.4 kcal/mL), the Binge Fat group had access to a 35% (w/v) fat emulsion (3.1 kcal/mL) and the Binge Sugar-Fat group had access to a 10% (w/v) sugar solution and 35% (w/v) fat emulsion (3.5 kcal/mL). Both emulsions were made with Wesson® Pure Vegetable Oil in tap water and 0.6% (w/v) Emplex, a commercially available emulsifier (American Ingredients Company, Kansas City, Mo., USA). Palatable food intakes were recorded daily. Chow intake was recorded weekly. Body weights were taken at the beginning and end of the 21-day diet period.
(§4) After 21 days on these diets, drug testing began. During testing, diet regimens were maintained. Approximately 3.5 h into the dark cycle, animals were weighed and intraperitoneal (i.p.) injections of drug were given (according to the schedule below). 30 min later (4 h into the dark cycle) palatable food and chow were made available to the rats. For the first 3 days, rats were acclimated to handling and daily vehicle injections (0.9% saline, Hospira, Lake Forest, Ill., USA, i.p. 1 mL/kg). For days 4-16 of drug testing, either vehicle or drug was alternatively administered, starting with drug on day 4. […] Intake of palatable food and chow was measured hourly after injection for 4 h and again at the end of the 12-h access period.
(§5) Palatable food and standard chow intakes following saline injections between days 4-16 were averaged. All data were analyzed using one-way ANOVAs with post hoc Multiple Comparisons, when appropriate. In Tables 4-7, values having the same letter superscript are statistically different from one another.

Male Sprague-Dawley rats [2] = test: Standard chow intake following drug injections in binge-eating rats (Example 2); details: for Effect on standard chow intake, in words: one-way ANOVA over saline, low and high dose
Description: as §1, §2, §3, §4, §5

Male Sprague-Dawley rats [3] = test: Total caloric intake following drug injections in binge-eating rats (Example 2); details: for Effect on total caloric intake, in words: one-way ANOVA over saline, low and high dose
Description: as §1, §2, §3, §4, §5

rats = test: Binge eating rats, palatable food and chow intake (Example 1, FIGS. 1-5); details: drug alone, i.p., figure legends
Description: Baclofen (at 1.0 and 1.8 mg/kg, administered i.p.)
Baclofen+naltrexone (mixed low and mixed high)
1. Binge Sugar (10% sucrose solution, w/v)
2. Binge Fat (35% oil emulsion, w/v)
3. Binge Sugar/Fat (10% sucrose, 35% oil emulsion, w/v)
Groups of animals (rats) were maintained on their diets for 3 weeks to establish stable binge eating behavior. After this period of time, the rats were administered three days of daily i.p. injections of saline (to acclimate to the injection procedure), and sugar/chow intake was measured after the first hour of access and then hourly for the next 3 hours, as well as at the end of the 12-h access period. After this three-day period, rats were given baclofen+naloxone, and measurements taken as described above. Other dosage amounts of baclofen and naloxone were tested, as were the effects of these compounds alone (with measurements being performed as described above). Vehicle injections were performed between the various tests in order to allow for suitable clearance of compounds from the animals. […] Thus, the treatment appears ideally suited for food addicts, hedonic overeaters and changes food choice but not appetite.

[4] = Binge Fat group, 1 h, high dose (naltrexone 1.0 mg/kg, baclofen 1.8 mg/kg, or both, i.p.)
[5] = Binge Fat group, 1 h, low dose (naltrexone 0.1 mg/kg, baclofen 1.0 mg/kg, or both, i.p.)
[6] = Binge Fat group, 12 h, high dose (naltrexone 1.0 mg/kg, baclofen 1.8 mg/kg, or both, i.p.)
[7] = Binge Fat group, 12 h, low dose (naltrexone 0.1 mg/kg, baclofen 1.0 mg/kg, or both, i.p.)
[8] = Binge Sugar group, 1 h, high dose (naltrexone 1.0 mg/kg, baclofen 1.8 mg/kg, or both, i.p.)
[9] = Binge Sugar group, 1 h, low dose (naltrexone 0.1 mg/kg, baclofen 1.0 mg/kg, or both, i.p.)
[10] = Binge Sugar group, 12 h, high dose (naltrexone 1.0 mg/kg, baclofen 1.8 mg/kg, or both, i.p.)
[11] = Binge Sugar group, 12 h, low dose (naltrexone 0.1 mg/kg, baclofen 1.0 mg/kg, or both, i.p.)
[12] = Binge Sugar-Fat group, 1 h, high dose (naltrexone 1.0 mg/kg, baclofen 1.8 mg/kg, or both, i.p.)
[13] = Binge Sugar-Fat group, 1 h, low dose (naltrexone 0.1 mg/kg, baclofen 1.0 mg/kg, or both, i.p.)
[14] = Binge Sugar-Fat group, 12 h, high dose (naltrexone 1.0 mg/kg, baclofen 1.8 mg/kg, or both, i.p.)
[15] = Binge Sugar-Fat group, 12 h, low dose (naltrexone 0.1 mg/kg, baclofen 1.0 mg/kg, or both, i.p.)

NC[C@H](CC(=O)O)c1ccc(Cl)cc1 [Baclofen, R-baclofen]
1-H Palatable Food Intake (Kcal) (Male Sprague-Dawley rats [1]; [4]): 6.5 ± 2.0^c,d Kcal | Palatable food intake as a percent of intake after saline injections, 1-H Intake (%) (Male Sprague-Dawley rats [1]; [4]): 38% | 1-H Palatable Food Intake (Kcal) (Male Sprague-Dawley rats [1]; [5]): 17.9 ± 2.4^d Kcal | Palatable food intake as a percent of intake after saline injections, 1-H Intake (%) (Male Sprague-Dawley rats [1]; [5]): 106% | Effect on palatable food (fat) intake, in words (Male Sprague-Dawley rats [1]; Binge Fat group, 1 h): decreased | 12-H Palatable Food Intake (Kcal) (Male Sprague-Dawley rats [1]; [6]): 32.6 ± 4.9^e,f Kcal | Palatable food intake as a percent of intake after saline injections, 12-H Intake (%) (Male Sprague-Dawley rats [1]; [6]): 56% | 12-H Palatable Food Intake (Kcal) (Male Sprague-Dawley rats [1]; [7]): 54.5 ± 4.5^f Kcal | Palatable food intake as a percent of intake after saline injections, 12-H Intake (%) (Male Sprague-Dawley rats [1]; [7]): 93% | Effect on palatable food (fat) intake, in words (Male Sprague-Dawley rats [1]; Binge Fat group, 12 h): decreased | 1-H Palatable Food Intake (Male Sprague-Dawley rats [1]; [8]): 2.7 ± 0.5 kcal | Palatable food intake as a percent of intake after saline injections, 1-H Intake (%) (Male Sprague-Dawley rats [1]; [8]): 96% | 1-H Palatable Food Intake (Male Sprague-Dawley rats [1]; [9]): 3.6 ± 0.8 kcal | Palatable food intake as a percent of intake after saline injections, 1-H Intake (%) (Male Sprague-Dawley rats [1]; [9]): 131% | Effect on palatable food (sugar) intake, in words (Male Sprague-Dawley rats [1]; Binge Sugar group, 1 h): no effect | 12-H Palatable Food Intake (Kcal) (Male Sprague-Dawley rats [1]; [10]): 11.4 ± 2.4^ Kcal | Palatable food intake as a percent of intake after saline injections, 12-H Intake (%) (Male Sprague-Dawley rats [1]; [10]): 90% | 12-H Palatable Food Intake (Male Sprague-Dawley rats [1]; [11]): 11.3 ± 2.5 kcal | Palatable food intake as a percent of intake after saline injections, 12-H Intake (%) (Male Sprague-Dawley rats [1]; [11]): 88% | Effect on palatable food (sugar) intake, in words (Male Sprague-Dawley rats [1]; Binge Sugar group, 12 h): no effect | 1-H Palatable Food Intake (Kcal) (Male Sprague-Dawley rats [1]; [12]): 8.6 ± 1.6^j,k Kcal | Palatable food intake as a percent of intake after saline injections, 1-H Intake (%) (Male Sprague-Dawley rats [1]; [12]): 37% | 1-H Palatable Food Intake (Kcal) (Male Sprague-Dawley rats [1]; [13]): 23.5 ± 3.9^j Kcal | Palatable food intake as a percent of intake after saline injections, 1-H Intake (%) (Male Sprague-Dawley rats [1]; [13]): 100% | Effect on palatable food (sugar-fat) intake, in words (Male Sprague-Dawley rats [1]; Binge Sugar-Fat group, 1 h): significantly decreased | 12-H Palatable Food Intake (Kcal) (Male Sprague-Dawley rats [1]; [14]): 57.4 ± 4.1^p Kcal | Palatable food intake as a percent of intake after saline injections, 12-H Intake (%) (Male Sprague-Dawley rats [1]; [14]): 75% | 12-H Palatable Food Intake (Male Sprague-Dawley rats [1]; [15]): 64.9 ± 6.6 kcal | Palatable food intake as a percent of intake after saline injections, 12-H Intake (%) (Male Sprague-Dawley rats [1]; [15]): 85% | Effect on palatable food (sugar-fat) intake, in words (Male Sprague-Dawley rats [1]; Binge Sugar-Fat group, 12 h): suppressed intake | 1-H Chow Intake (Male Sprague-Dawley rats [2]; [4]): 10.6 ± 1.0 kcal | 1-H Chow Intake (Male Sprague-Dawley rats [2]; [5]): 12.2 ± 1.7 kcal | 12-H Chow Intake (Male Sprague-Dawley rats [2]; [6]): 35.0 ± 5.0 kcal | 12-H Chow Intake (Male Sprague-Dawley rats [2]; [7]): 34.1 ± 3.3 kcal | 1-H Chow Intake (Male Sprague-Dawley rats [2]; [8]): 19.3 ± 3.4 kcal | 1-H Chow Intake (Male Sprague-Dawley rats [2]; [9]): 23.0 ± 1.5 kcal | 12-H Chow Intake (Male Sprague-Dawley rats [2]; [10]): 62.5 ± 3.8 kcal | 12-H Chow Intake (Kcal) (Male Sprague-Dawley rats [2]; [11]): 73.5 ± 4.5^c Kcal | 1-H Chow Intake (Kcal) (Male Sprague-Dawley rats [2]; [12]): 6.3 ± 1.0^i Kcal | 1-H Chow Intake (Kcal) (Male Sprague-Dawley rats [2]; [13]): 11.3 ± 1.7^i Kcal | Effect on standard chow intake, in words (Male Sprague-Dawley rats [2]; Binge Sugar-Fat group, 1 h): less chow intake at the high dose compared to the low dose | 12-H Chow Intake (Male Sprague-Dawley rats [2]; [14]): 24.1 ± 3.1 kcal | 12-H Chow Intake (Male Sprague-Dawley rats [2]; [15]): 24.6 ± 2.2 kcal | Effect on standard chow intake, in words (Male Sprague-Dawley rats [2]; Fat group, 1 h): no effect | Effect on standard chow intake, in words (Male Sprague-Dawley rats [2]; Fat group, 12 h): no effect | Effect on standard chow intake, in words (Male Sprague-Dawley rats [2]; Sugar group, 1 h): no effect | Effect on standard chow intake, in words (Male Sprague-Dawley rats [2]; Sugar group, 12 h): stimulated chow intake | 1-H Total Caloric Intake (Kcal) (Male Sprague-Dawley rats [3]; [4]): 17.0 ± 3.0^e,f Kcal | 1-H Total Caloric Intake (Kcal) (Male Sprague-Dawley rats [3]; [5]): 30.1 ± 4.1^f Kcal | 12-H Total Caloric Intake (Kcal) (Male Sprague-Dawley rats [3]; [6]): 67.7 ± 9.9^g Kcal | 12-H Total Caloric Intake (Male Sprague-Dawley rats [3]; [7]): 88.6 ± 7.8 kcal | 1-H Total Caloric Intake (Male Sprague-Dawley rats [3]; [8]): 21.9 ± 4.4 kcal | 1-H Total Caloric Intake (Male Sprague-Dawley rats [3]; [9]): 26.7 ± 2.3 kcal | 12-H Total Caloric Intake (Male Sprague-Dawley rats [3]; [10]): 74.0 ± 6.3 kcal | 12-H Total Caloric Intake (Male Sprague-Dawley rats [3]; [11]): 84.8 ± 7.0 kcal | 1-H Total Caloric Intake (Kcal) (Male Sprague-Dawley rats [3]; [12]): 15.0 ± 2.6^k,m Kcal | 1-H Total Caloric Intake (Kcal) (Male Sprague-Dawley rats [3]; [13]): 34.8 ± 5.6^m Kcal | 12-H Total Caloric Intake (Male Sprague-Dawley rats [3]; [14]): 81.4 ± 7.3 kcal | 12-H Total Caloric Intake (Male Sprague-Dawley rats [3]; [15]): 89.5 ± 8.8 kcal | Effect on total caloric intake, in words (Male Sprague-Dawley rats [3]; Fat group, 1 h): significantly reduced | Effect on total caloric intake, in words (Male Sprague-Dawley rats [3]; Fat group, 12 h): significantly reduced | Effect on total caloric intake, in words (Male Sprague-Dawley rats [3]; Sugar group, 1 h): no effect | Effect on total caloric intake, in words (Male Sprague-Dawley rats [3]; Sugar group, 12 h): no effect | Effect on total caloric intake, in words (Male Sprague-Dawley rats [3]; Sugar-Fat group, 1 h): reduced | Effect on total caloric intake, in words (Male Sprague-Dawley rats [3]; Sugar-Fat group, 12 h): not apparent | Effect on intake of oil-containing palatable foods (rats; oil containing groups (Binge Fat, Binge Sugar/Fat)): reduces intake | Effect on binge eating of sugar (rats; sugar-binging rats): no effect

Reference: patent US9610285B2, “Compositions for controlling food intake and uses therefor” (UNIVERSITY OF FLORIDA RESEARCH FOUNDATION, INCORPORATED, priority 2011, dated 2017)
